In patent US8772499B2, “TRPV3 modulators” (AbbVie Inc., priority 2011, dated 2014):
Read-outs that look alike come from different tables or passages of the source.

Columns and labels:
human TRPV3 = biological target: T1, human TRPV3 (Homo sapiens, UniProt Q8NET8); experiment: In vitro antagonism of recombinant human TRPV3 activation (FLIPR Tetra calcium assay); assay type: cell-based; details: HEK293 cells stably expressing human TRPV3, agonist 2-APB at 80 μM
T1 construct: expressed in transfected cells
T1 sequence (Q8NET8 1-790): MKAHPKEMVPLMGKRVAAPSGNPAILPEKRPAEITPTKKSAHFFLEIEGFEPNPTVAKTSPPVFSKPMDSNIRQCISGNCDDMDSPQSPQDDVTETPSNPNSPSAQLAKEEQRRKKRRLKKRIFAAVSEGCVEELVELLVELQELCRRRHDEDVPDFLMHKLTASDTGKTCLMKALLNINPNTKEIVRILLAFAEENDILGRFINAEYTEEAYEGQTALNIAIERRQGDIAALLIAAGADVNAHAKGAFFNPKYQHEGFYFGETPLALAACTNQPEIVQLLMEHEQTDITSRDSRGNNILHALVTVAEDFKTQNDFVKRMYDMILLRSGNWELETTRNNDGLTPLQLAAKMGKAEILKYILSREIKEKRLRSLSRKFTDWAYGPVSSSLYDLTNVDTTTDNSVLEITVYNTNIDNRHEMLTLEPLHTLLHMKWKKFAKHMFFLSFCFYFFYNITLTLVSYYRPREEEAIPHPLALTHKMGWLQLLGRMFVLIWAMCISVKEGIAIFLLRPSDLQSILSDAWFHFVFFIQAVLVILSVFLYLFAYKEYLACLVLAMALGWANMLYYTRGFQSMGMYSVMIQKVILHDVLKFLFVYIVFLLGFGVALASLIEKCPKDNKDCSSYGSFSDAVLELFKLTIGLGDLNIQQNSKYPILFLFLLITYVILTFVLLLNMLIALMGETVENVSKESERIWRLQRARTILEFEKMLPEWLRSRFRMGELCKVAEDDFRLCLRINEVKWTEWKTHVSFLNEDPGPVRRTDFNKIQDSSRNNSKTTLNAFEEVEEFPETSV
Procedure, shortened: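 Calcium flux read over a 10 min run: compound added at 10 s to Calcium-4-loaded human TRPV3-HEK293 cells, agonist 2-APB (80 μM, its EC80) after 3 min. IC50 derived from peak-minus-baseline signal as percentage of uninhibited 2-APB response, typically averaged over at least two runs.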

[1] = In vitro human microsomal stability assay; assay type: in vitro ADME; details: for HUMAN MICROSOMAL STABILITY (% REMAINING AFTER 30 MINUTES): microsomes, 0.5 h, 0.5 μM, pH 7.4
Procedure, shortened: (§1)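 Metabolic stability was followed in NADPH-supplemented incubations at 37° C., using microsomes prepared from human liver or from Sprague-Dawley rat liver.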

[2] = In vitro rat microsomal stability assay; assay type: in vitro ADME, rat (Sprague-Dawley); details: for RAT MICROSOMAL STABILITY (% REMAINING AFTER 30 MINUTES): Sprague-Dawley, microsomes, 0.5 h, 0.5 μM, pH 7.4
Procedure, shortened: as §1

[3] = test system: chronic constriction injury (CCI) model of neuropathic pain; experiment: In vivo chronic constriction injury (CCI) model of neuropathic pain, mechanical allodynia (von Frey); design: species or system CD1 mice; details: 100 mg/kg oral dose, mechanical allodynia 1 hour after dosing, CCI mice, average of eight mice, vehicle 0%, control 100%; for inhibition in vivo at 100 mg/kg: Mus musculus, po, 1 h, read-out: % EFFECT
Experimental: Test compounds were evaluated for analgesic effect in an in vivo chronic constriction injury (CCI) model of neuropathic pain. CD1 mice (Charles River) were used for these studies. Prior to testing (2-4 weeks) animals underwent a surgical procedure consisting of approximately 3 loose ligatures around the sciatic nerve. Following sterilization procedures, under isofluorane anesthetic, a 1.5 cm incision was made dorsal to the pelvis. The biceps femoris and gluteous superficialis (right side) were separated and the sciatic nerve exposed, isolated, and 2-4 loose ligatures (5-0 chromic gut) with less than 1 mm spacing were placed around it. Following hemostasis, the wound was sutured (layer of muscle closed with 5-0 nylon suture, and the wound closed with surgical staples) and coated with iodine. The mice were allowed to recover on a warming plate and were returned to their home cages (soft bedding) when able to walk on their own.
Two to four weeks after the surgery, test compound was administered orally (PO) in these mice, and mechanical allodynia was evaluated 1 hour after oral dosing where the threshold to response was assessed using calibrated von Frey monofilaments. The von Frey monofilaments were applied to the hind paw at increasing forces until the animal responded by lifting its paw. Normally, the force of the von Frey monofilament was innocuous and only in the altered state (allodynia or hyperalgesia) did the animals respond to this stimulation. […] At the end of the experiment, after behavioral testing, plasma (and in some instances brain tissue) was taken for exposure analysis.
Each test compound was evaluated in eight different mice. The data reported in Table 3 represent the average value of the approximate percent effect of each compound in relieving neuropathic pain in mice receiving 100 mg/kg oral dose of the test compound. The grams of force needed to elicit a withdrawal response from the injured mouse that was challenged with vehicle was assigned a 0% effect, while the grams of force needed to elicit a withdrawal response from the control was given a 100% effect.

[4] = actual measured value shown parenthetically, in most cases average of at least two runs, read-out: IC50
[5] = reported range, read-out: IC50 (range class)

| Structure (SMILES) | IC50 (human TRPV3; [4]) | IC50 (human TRPV3; [5]) | HUMAN […] (% REMAINING AFTER 30 MINUTES) ([1]; human liver microsomes, 0.5 μM substrate, 0.25 mg/mL microsomal protein, pH 7.4, 37° C., NADPH, 30 minutes) | RAT […] (% REMAINING AFTER 30 MINUTES) ([2]; rat liver microsomes (Sprague-Dawley), 0.5 μM substrate, 0.25 mg/mL microsomal protein, pH 7.4, 37° C., NADPH, 30 minutes) | % EFFECT [3] | HUMAN MICROSOMAL STABILITY (% REMAINING AFTER 30 MINUTES) [1] | RAT MICROSOMAL STABILITY (% REMAINING AFTER 30 MINUTES) [2] | inhibition in vivo at 100 mg/kg [3] |
| --- | --- | --- | --- | --- | --- | --- | --- | --- |
| C[C@]1(O)C[C@](c2cc(C(F)(F)F)ccn2)([C@H](O)c2ccccn2)C1 (relative stereo) [Example 285, cis-3-[(S)-hydroxy(pyridin-2-yl)methyl]-1-methyl-3-[4-(trifluoromethyl)-pyridin-2-yl]cyclobutanol] | 1000 nM | 501 to 1000 nM | 83% | 69% | 59% | – | – | – |
| OC1CC(c2ccc(Cl)c(Cl)c2)(C(O)c2ccccn2)C1 (single isomer, unassigned) [Example 118] | 220 nM | – | – | – | 89% | >85% | 74% | – |
| OC1CC(c2ccc(Cl)c(Cl)c2)(C(O)c2ccccn2)C1 (single isomer, unassigned) [Example 119] | 570 nM | – | – | – | 16% | >85% | 69% | – |
| CC1(O)CC(c2ccc(OC(F)(F)F)cc2)(C(O)c2ccccn2)C1 (single isomer, unassigned) [Example 134] | 860 nM | – | – | – | – | 78% | 72% | 98% |
| CC1(O)CC(c2ccc(C(F)(F)F)cc2)(C(O)c2ccccn2)C1 (single isomer, unassigned) [Example 232] | 1950 nM | – | – | – | – | 80% | 67% | 65% |
| CC1(O)CC(c2cccc(C(F)(F)F)c2)(C(O)c2ccccn2)C1 (single isomer, unassigned) [Example 236] | 760 nM | – | – | – | – | 54% | 41% | 33% |
| O[C@H](c1ccccn1)C1(c2ccc(OC(F)(F)F)cc2)CC(F)(F)C1 [Example 128, (S)-{3,3-difluoro-1-[4-(trifluoromethoxy)phenyl]cyclobutyl}(pyridin-2-yl)-methanol] | 110 nM | – | – | – | – | 59% | 67% | 78% |
| O=C1CC(c2cc(C(F)(F)F)ccn2)(C(O)c2ccccn2)C1 (stereo not shown) [Example 293, 3-[hydroxy(pyridin-2-yl)methyl]-3-[4-(trifluoromethyl)pyridin-2-yl]-cyclobutanone] | > 20000 nM | > 20000 nM | – | – | – | 78% | 69% | – |
| OC1CC(c2cc(C(F)(F)F)ccn2)([C@H](O)c2ccccn2)C1 (stereo partly drawn) [Example 294, 3-[(S)-hydroxy(pyridin-2-yl)methyl]-3-[4-(trifluoromethyl)pyridin-2-yl]-cyclobutanol] | > 20000 nM | > 20000 nM | – | – | – | >85% | >85% | – |
| O=C1CC(c2cncc(C(F)(F)F)c2)(C(O)c2ccccn2)C1 (stereo not shown) [Example 295, 3-[hydroxy(pyridin-2-yl)methyl]-3-[5-(trifluoromethyl)pyridin-3-yl]-cyclobutanone] | > 20000 nM | > 20000 nM | – | – | – | 70% | 8.2% | – |
| O=C1CC(c2cncc(C(F)(F)F)c2)([C@H](O)c2ccccn2)C1 [Example 296, 3-[(S)-hydroxy(pyridin-2-yl)methyl]-3-[5-(trifluoromethyl)pyridin-3-yl]-cyclobutanone] | > 20000 nM | > 20000 nM | – | – | – | 67% | 12% | – |
| OC(c1ccccn1)C1(c2ccnc(C(F)(F)F)c2)CC2(C1)OCCO2 (stereo not shown) [Example 297, pyridin-2-yl{2-[2-(trifluoromethyl)pyridin-4-yl]-5,8-dioxaspiro[3.4]oct-2-yl}methanol] | > 20000 nM | > 20000 nM | – | – | – | >85% | 2.0% | – |
| O=C1CC(c2ccnc(C(F)(F)F)c2)(C(O)c2ccccn2)C1 (stereo not shown) [Example 298, 3-[hydroxy(pyridin-2-yl)methyl]-3-[2-(trifluoromethyl)pyridin-4-yl]-cyclobutanone] | > 20000 nM | > 20000 nM | – | – | – | 80% | 59% | – |
| O=C1CC(c2ccnc(C(F)(F)F)c2)([C@H](O)c2ccccn2)C1 [Example 299, 3-[(S)-hydroxy(pyridin-2-yl)methyl]-3-[2-(trifluoromethyl)pyridin-4-yl]-cyclobutanone] | > 20000 nM | > 20000 nM | – | – | – | >85% | >85% | – |
| OC(c1ccccn1)C1(c2nc3ccc(F)cc3s2)CCC1 (stereo not shown) [Example 300, [1-(6-fluoro-1,3-benzothiazol-2-yl)cyclobutyl](pyridin-2-yl)methanol] | 4920 nM | – | – | – | – | 35% | 0.020% | – |
| OC(c1ccccn1)C1(c2nc3ccc(Cl)cc3o2)CCC1 (stereo not shown) [Example 301, [1-(6-chloro-1,3-benzoxazol-2-yl)cyclobutyl](pyridin-2-yl)methanol] | 6040 nM | – | – | – | – | 57% | 22% | – |
| OC1CC(c2cncc(C(F)(F)F)c2)(C(O)c2ccccn2)C1 [Example 303, cis-3-[(S)-hydroxy(pyridin-2-yl)methyl]-3-[5-(trifluoromethyl)pyridin-3-yl]cyclobutanol] | 530 nM | – | – | – | – | 80% | 32% | – |
| OC1CC(c2cncc(C(F)(F)F)c2)(C(O)c2ccccn2)C1 [Example 304, trans-3-[(S)-hydroxy(pyridin-2-yl)methyl]-3-[5-(trifluoromethyl)pyridin-3-yl]cyclobutanol] | 250 nM | – | – | – | – | >85% | 44% | – |
| OC1CC(c2ccnc(C(F)(F)F)c2)(C(O)c2ccccn2)C1 [Example 305, cis-3-[(S)-hydroxy(pyridin-2-yl)methyl]-3-[2-(trifluoromethyl)pyridin-4-yl]-cyclobutanol] | 290 nM | – | – | – | – | 63% | 49% | – |
| CC1(O)CC(c2ccc(OC(F)(F)F)cc2)(C(O)c2ncccn2)C1 [Example 310, trans-3-((S)-hydroxy(pyrimidin-2-yl)methyl)-1-methyl-3-(4-(trifluoromethoxy)phenyl)cyclobutanol] | > 20000 nM | > 20000 nM | – | – | – | >85% | >85% | – |
